# Structures can show the parent of a compound that is named as a salt.
# Assays:
# [1] = test system: Recombinant Escherichia coli strains with the rec A genetic pathway; experiment: Fluorescent signal of rec A recombinant strains exposed to dimethyl sulfate solution, immobilized versus not immobilized; assay type: cell-based; details: 50 mg/L solution of dimethyl sulfate
# [2] = test system: 29 recombinant Escherichia coli strains carrying plasmids with different genetic pathways; experiment: In-situ gaseous exposure genotoxicity detection with hydrogel beads containing immobilized recombinant Escherichia coli strains; assay type: cell-based
# Source text: Embodiment 5: Immobilization of 29 recombinant Escherichia coli strains carrying plasmids with different genetic pathways by hydrogel beads for genotoxicity detection of pollutants, including DNA damage, DNA repair, and oxidative stress: • (1) The nutrient in the core was a modified M9 medium, including MgCl2, CaCl2), NaCl, NH4Cl, Tris-HCl (pH-7.4) buffer, and glucose, to ensure the continued survival of the recombinant Escherichia coli strains when exposed at the air-liquid interface. • (2) The hydrogel beads containing immobilized 29 recombinant Escherichia coli strains, were assembled in a specially designed gaseous exposure system. Different concentrations (ranging from 20 to 500 mg/m^3) of gaseous methanesulfonic acid methyl ester were introduced into the exposure system for simultaneous exposure. […] In summary, a rapid analysis of the genotoxicity fingerprint of gaseous methanesulfonic acid methyl ester was conducted from the perspective of in-situ exposure.
# [3] = 20 to 500 mg/m^3, as exposure concentration increased
Structure (SMILES),Fluorescent signals of rec A strains immobilized in hydrogel beads compared to not immobilized [1],Ina A gene expression (SOS response) ([2]; 20 to 500 mg/m^3),pol B gene pathway expression (DNA damage/repair) ([2]; 20 to 500 mg/m^3),rec A gene pathway expression (DNA damage/repair) ([2]; 20 to 500 mg/m^3),rec N gene pathway expression (DNA damage/repair) ([2]; 20 to 500 mg/m^3),sox R gene expression (SOS response) ([2]; 20 to 500 mg/m^3),"Kat G gene expression (oxidative stress) [2, 3]","ahp C gene expression (oxidative stress) [2, 3]"
COS(=O)(=O)OC [dimethyl sulfate],stronger fluorescent signals,–,–,–,–,–,–,–
COS(C)(=O)=O [methanesulfonic acid methyl ester],–,downregulation,significant upregulation,significant upregulation,significant upregulation,downregulation,significant upregulation,significant upregulation

# From patent publication US20250115894A1, “Three-dimensional model of exposed microbial membranes at gas-liquid interface and preparation method thereof” (priority 2023, published 2025)
